Assays:
[1] = PAMPA‐BBB permeability assay
Description: The permeability of LM-031 was determined by a PAMPA-BBB assay. Briefly, the donor well (Millipore) was filled with 300 μl of LM-031 (1 μM) solution. […] The filter membrane (PVDF membrane, pore size 0.45 μm; Millipore) was coated with 4 μl of 20 mg/ml porcine polar brain lipid (Avanti Polar Lipids, Alabaster, AL, USA) in dodecane and the acceptor well was filled with 200 μl of acceptor buffer (5% DMSO in PBS). The filter plate was carefully placed on the donor plate to form a “sandwich” (consisting of aqueous donor on the bottom, artificial lipid membrane in the middle, and aqueous acceptor on the top). Each compound was tested in triplicate. The sandwich plate was incubated at room temperature for 18 h. After the permeation time, the PAMPA sandwich plate was separated. The concentration of LM-031 in the acceptor and donor wells was determined using QTRAP 6500 mass spectrometer (AB SCIEX, Singapore) linked to 1200 HPLC system (Agilent Technologies, Palo Alto, CA, USA).

BAX = experiment: Western blot of BAX in ∆K280 TauRD‐DsRed SH‐SY5Y cells; assay type: cell-based, human; conditions: induced untreated 120%, uninduced 100%
Description: (§1) Total proteins from ∆K280 TauRD-DsRed SH-SY5Y cells were obtained using a RIPA buffer containing 50 mM Tris-HCl (pH8.0), 150 mM NaCl, 2 mM EDTA (pH8.0), 50 mM NaF, 0.1% SDS, 0.5% sodium deoxycholate, 1% NP40, and a protease inhibitor cocktail (Sigma-Aldrich). After sonication and sitting on ice for 20 min, the lysates were centrifuged at 14,000 × g for 30 min at 4°C. Protein concentrations were determined using a protein assay kit (Bio-Rad, Hercules, CA, USA), with albumin as a standard. Total proteins (20 µg) were electrophoresed on 10% or 12% SDS-polyacrylamide gel and transferred onto polyvinylidene difluoride (PVDF) membranes (Sigma-Aldrich) through reverse electrophoresis. […] Subsequently, immune complexes were detected using a horseradish peroxidase-conjugated goat anti-mouse or goat anti-rabbit IgG antibody (1:5000; GeneTex, Irvive, CA, USA) and a chemiluminescent substrate (Millipore).

NRF2 = experiment: Western blot of NRF2 in hippocampus of STZ‐treated 3 × Tg‐AD mice; assay type: in vivo, mouse; conditions: STZ 53%, – STZ 100%
Description: In addition, isolated hippocampal and cortex tissues from transgenic mice (as described in Animal studies) were homogenized and extracted proteins (10 µg) were separated and blotted. After being blocked, the membranes were probed with antibody against mouse NRF2 (1:500; Sigma-Aldrich), CREB (1:500; Millipore), pCREB (S133) (1:1000; Millipore), or GAPDH (1:1000; MDBio), and the immune complexes detected as described above.
Mice harboring APPSwe, PS1M146V, and […] transgenes (3×Tg-AD) (Oddo et al., 2003) were purchased from the Jackson Laboratory (004807; Bar Harbor, ME, USA). Six-month-old male homozygous 3×Tg-AD mice were group housed at 20–25°C and 60% relative humidity under a daily 12-h light/12-h dark cycle, with assess to food and water ad libitum. Mice were randomly divided into 3 groups: – streptozocin (STZ), STZ, and STZ/LM-031 (n = 10 per group). STZ-induced hyperglycemia was used to accelerate the development of AD phenotype (Chen et al., 2014). Briefly, the mice were fasted for 12 h each day prior to intraperitoneal (i.p.) injection of STZ ([…]; Sigma-Aldrich) or vehicle (0.1 M sodium citrate pH4.5) for 4 times (days 2, 3, 9, and 10) (Chen et al., 2019). Mouse body weight was measured and blood glucose level was measured on days 1, 8, 15, 22, and 29 using a blood glucose meter (Bioland Technology, Taipei, Taiwan). […]

GCLC = experiment: Western blot of GCLC in ∆K280 TauRD‐DsRed SH‐SY5Y cells; assay type: cell-based, human; conditions: 1 µM; induced untreated 78%, uninduced 100%
Description: as §1

[2] = system: STZ‐induced hyperglycemic 3 × Tg‐AD mice; experiment: Morris water maze task in STZ‐treated 3 × Tg‐AD mice; assay type: in vivo, mouse; conditions: for Morris water maze latency to hidden platform: 40 mg/kg i.p.
Description: Mice harboring APPSwe, PS1M146V, and […] transgenes (3×Tg-AD) (Oddo et al., 2003) were purchased from the Jackson Laboratory (004807; Bar Harbor, ME, USA). Six-month-old male homozygous 3×Tg-AD mice were group housed at 20–25°C and 60% relative humidity under a daily 12-h light/12-h dark cycle, with assess to food and water ad libitum. Mice were randomly divided into 3 groups: – streptozocin (STZ), STZ, and STZ/LM-031 (n = 10 per group). STZ-induced hyperglycemia was used to accelerate the development of AD phenotype (Chen et al., 2014). Briefly, the mice were fasted for 12 h each day prior to intraperitoneal (i.p.) injection of STZ ([…]; Sigma-Aldrich) or vehicle (0.1 M sodium citrate pH4.5) for 4 times (days 2, 3, 9, and 10) (Chen et al., 2019). Mouse body weight was measured and blood glucose level was measured on days 1, 8, 15, 22, and 29 using a blood glucose meter (Bioland Technology, Taipei, Taiwan). LM-031 (40 mg/kg) or vehicle (DMSO:Cremophor EL:0.9% saline = 1:2:7) was intraperitoneally injected every day for 22 days from days 15 to 36. All animal procedures were ethically approved by the Institutional Animal Care and Use Committee of National Taiwan Normal University, Taipei, Taiwan (Permit Number: 103002) and were conducted in compliance with the ARRIVE (Animal Research: Reporting In Vivo Experiments) guidelines.
The water maze apparatus consisted of a circular pool with diameter 100 cm and height 76 cm, a submerged platform 1 cm below the water surface, four types of cues providing distal landmarks in the testing room, and a video camera suspended 250 cm above the center of the pool and connected to a video tracking system. The pool was filled up with water (24–26°C, 35 cm high) rendered opaque by the addition of nontoxic white paint. Mice relied on external cues to find the hidden platform in opaque water. One day prior to spatial training, all mice underwent pretraining to examine animals’ swimming ability and to acclimatize them to the pool. For pretraining (day 29), each mouse was placed in the pool to swim for 60 sec. After three trials, a platform was placed in the center of the pool and the mouse was allowed to remain there for 20 sec. For training (days 30–33), the platform was placed in a quadrant and each mouse received four trials per day for 4 consecutive days, with a cue signaling the platform position. The submerged platform remained there and entry points changed semi-randomly throughout all trials. The trial ended either when the mouse climbed onto the platform or when 60 seconds had elapsed. At the end of each trial the mouse was placed on the platform and faced the cue for 20 sec, learning where the platform was. […] All the data were analyzed by PhenoTracker.

O=C(c1ccccc1)c1cc2c(O)cccc2oc1=O [LM‐031, 3‐benzoyl‐5‐hydroxychromen‐2‐one]
Papp at 18 h, 1 µM [1]: 4.8 ± 0.12 ×10⁻⁶ cm/s
BAX expression (BAX): 76%
NRF2 level in hippocampus (NRF2): 92%
GCLC protein level (GCLC): 120%
Morris water maze duration in target quadrant ([2]; probe trials 2 and 48 hr (days 34 and 36), STZ 17 s, – STZ 26 s): 24 s
Morris water maze latency to hidden platform ([2]; testing on day 34, STZ 39 s, – STZ 21 s): 26 s
Morris water maze latency to hidden platform ([2]; training day 3, STZ 43 s, – STZ 31 s): 31 s
Morris water maze latency to hidden platform ([2]; training day 4, STZ 40 s, – STZ 26 s): 30 s

— publication PMC7433010, “Exploration of multi‐target effects of 3‐benzoyl‐5‐hydroxychromen‐2‐one in Alzheimer’s disease cell and mouse models” (Aging Cell, 2020)
